In patent publication US11512268B2, “Storage-stable enzyme preparations, their production and use” (BASF SE, priority 2017, dated 2022):

How the values were obtained:
Savinase = molecular target: T1, Savinase (Lederbergia lenta, UniProt P29600); test: storage stability of protease (Savinase activity, Suc-AAPF-pNA substrate) in liquid formulations at 37° C.; assay type: biochemical; conditions: base formulation III., component (a) 2.5 wt %, Savinase 16.0 L 0.5 wt %, storage at 37° C.
T1 construct: purchased Sigma-Aldrich
T1 sequence (P29600 1-269): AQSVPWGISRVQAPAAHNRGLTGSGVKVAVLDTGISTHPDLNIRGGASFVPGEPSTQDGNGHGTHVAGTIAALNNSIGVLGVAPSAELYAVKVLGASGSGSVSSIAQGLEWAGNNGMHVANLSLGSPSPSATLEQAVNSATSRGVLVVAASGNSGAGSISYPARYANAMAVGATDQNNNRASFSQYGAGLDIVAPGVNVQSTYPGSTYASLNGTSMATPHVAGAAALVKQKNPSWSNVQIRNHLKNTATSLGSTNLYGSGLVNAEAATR
Method: (§1) The storage stability of Lipase and Protease in water was assessed at 37° C.
(§2) Base test formulations were manufactured by making base formulations I to VI by mixing the components according to Table 1.
(§3) The respective salt (component (a)) or comparative compound was added, if applicable, to the respective base formulation in amounts as indicated in Table 1.
(§4) The amount of enzyme as provided in Table 1 refers to active protein. Either lipase or protease was added, depending on which enzyme activity was measured.
(§5) Lipolase® 100 L (CAS-No. 9001-62-1, EC-No. 232-619-9) was purchased from Sigma-Aldrich. Savinase® 16.0 L (CAS-No. 9014-01-1, EC-No. 232-752-2) was purchased from Sigma-Aldrich.
Savinase activity at certain points in time as indicated in Table 3 was be determined by employing Succinyl-Ala-Ala-Pro-Phe-p-nitroanilide (Suc-AAPF-pNA, short AAPF) as substrate. pNA is cleaved from the substrate molecule by proteolytic cleavage, resulting in release of yellow color of free pNA which was determined by measuring OD405. Measurement were done at 20° C.
The proteolytic activity values provided in Table 3 were calculated referring to the 100% value determined in the reference formulation at the time 0.
(§6) The nomenclature of formulations is as follows: the Roman number before the full stop characterizes the base formulation, the Arabian number the type of salt (A.# inventive salt (component (a)); C-(A.#) comparative compound). Zero (“0”): no salt, but diethylene glycol.

Lipolase = molecular target: T2, Lipolase (Thermomyces lanuginosus, UniProt O59952); test: storage stability of lipase (Lipolase activity, pNitrophenol-valerate substrate) in liquid formulations at 37° C.; assay type: biochemical, Thermomyces lanuginosa; conditions: component (a) 2.5 wt %, Lipolase 0.4 wt %, storage at 37° C.
T2 construct: purchased Sigma-Aldrich
T2 sequence (O59952 23-291): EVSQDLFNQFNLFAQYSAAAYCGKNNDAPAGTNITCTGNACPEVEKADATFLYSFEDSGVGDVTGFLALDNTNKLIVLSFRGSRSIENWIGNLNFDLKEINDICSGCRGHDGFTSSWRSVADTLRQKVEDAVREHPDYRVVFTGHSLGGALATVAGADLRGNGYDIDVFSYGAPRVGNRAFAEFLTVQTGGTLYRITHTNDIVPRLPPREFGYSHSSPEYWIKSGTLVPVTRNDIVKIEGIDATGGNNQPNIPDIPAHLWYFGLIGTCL
Method: as §1, §2, §3, §4, §5
Lipolase activity at certain points in time as indicated in Table 2 was be determined by employing pNitrophenol-valerate (2.4 mM pNP-C5 in 100 mM Tris pH 8.0, 0.01% Triton X100) as a substrate. The absorption was measured at 20° C. every 30 seconds over 5 minutes at 405 nm. The slope (absorbance increase at 405 nm per minute) of the time dependent absorption-curve is directly proportional to the activity of the lipase.
The lipolytic activity values provided in Table 2 were calculated referring to the 100% value determined in the reference formulation at the time 0.
as §6

Structure (SMILES)	lipase activity (Lipolase; base formulation II., 1 d)	lipase activity (Lipolase; base formulation II., 3 d)	lipase activity (Lipolase; base formulation II., 6 d)	lipase activity (Lipolase; base formulation II., 10 d)	lipase activity (Lipolase; base formulation II., 15 d)	lipase activity (Lipolase; base formulation II., 20 d)	lipase activity (Lipolase; base formulation II., 25 d)	lipase activity (Lipolase; base formulation II., 30 d)	lipase activity (Lipolase; base formulation III., 1 d)	lipase activity (Lipolase; base formulation III., 3 d)	lipase activity (Lipolase; base formulation III., 6 d)	lipase activity (Lipolase; base formulation III., 10 d)	lipase activity (Lipolase; base formulation III., 15 d)	lipase activity (Lipolase; base formulation III., 20 d)	lipase activity (Lipolase; base formulation III., 25 d)	lipase activity (Lipolase; base formulation III., 30 d)	lipase activity (Lipolase; base formulation III., T0)	also measured
CC(=O)OCC[N+](C)(C)C [(A.12), Acetylcholine]	98%	96%	95%	88%	86%	80%	77%	76%	98%	97%	95%	91%	86%	80%	78%	74%	–	protease activity (Savinase; 1 d): 96%; protease activity (Savinase; 3 d): 92%; protease activity (Savinase; 6 d): 80%; protease activity (Savinase; 10 d): 70%; protease activity (Savinase; 15 d): 61%; protease activity (Savinase; 20 d): 50%; protease activity (Savinase; 25 d): 39%; protease activity (Savinase; 30 d): 31%; protease activity (Savinase; T0): 96%
O=C([O-])CC(O)(CC(=O)O)C(=O)O.[Na+] [C-(A.20), monosodium salt of citric acid]	–	–	–	–	–	–	–	–	92%	79%	70%	51%	39%	30%	22%	16%	100%	–
O=C([O-])CC(O)(CC(=O)[O-])C(=O)O.[Na+].[Na+] [C-(A.21), disodium salt of citric acid]	–	–	–	–	–	–	–	–	93%	78%	68%	50%	39%	31%	25%	20%	101%	–
O=C([O-])CC(O)(CC(=O)[O-])C(=O)[O-].[Na+].[Na+].[Na+] [C-(A.22), trisodium salt of citric acid]	87%	79%	67%	55%	40%	33%	24%	18%	92%	76%	66%	48%	37%	28%	23%	19%	98%	lipase activity (Lipolase; base formulation II., T0): 95%
